Measured values from article PMC10080691, “Enzyme-Responsive Double-Locked Photodynamic Molecular Beacon for Targeted Photodynamic Anticancer Therapy” (Journal of the American Chemical Society, 2023).

How the values were obtained:
A549 cells [1] = assay: Intracellular ROS generation (H2DCFDA); format: cell-based, human; details: 2 μM 1 h + 6 h, light λ > 610 nm, 23 mW cm-2, 14 J cm-2
Description: The enzyme-responsive intracellular ROS generation of 1 was then examined in A549 and HeLa cells using 2′,7′-dichlorodihydrofluorescein diacetate (H2DCFDA) as the ROS fluorescent probe. Once H2DCFDA is internalized, it will be deacetylated by the intracellular esterase, followed by oxidation by the intracellular ROS, leading to the formation of the highly fluorescent 2′,7′-dichlorofluorescein (DCF).[79] The cells were first pretreated with SB-3CT (10 μM) and/or CA-074 Me (25 μM) or simply the neat medium for 2 h, followed by incubation with 1 (2 μM) for a further 1 h. As a negative control, the cells were simply incubated with 14 (2 μM) for 1 h. After being rinsed with PBS, the cells were incubated in the medium for a further 6 h. Finally, the cells were incubated with H2DCFDA (10 μM) for 30 min, followed by dark or light (λ > 610 nm, 23 mW cm^–2, 14 J cm^–2) treatment. […] It can be seen that for the MMP-2-positive A549 cells, the fluorescence due to DCF was in the following order: 1 without pretreatment of the cells with the two inhibitors > 1 with pretreatment of the cells with either one of the two inhibitors > 1 with pretreatment of the cells with both inhibitors ≈ 14. […] This trend, which reflects the extent of recovery of ROS generation, was in accord with that of the fluorescence recovery inside the cells (Figure 5c,d). For the MMP-2-negative HeLa cells, the intracellular fluorescence remained very weak even for 1 without pretreatment of the cells with the two inhibitors because of the intrinsically low MMP levels in the cells. […]
or ER-Tracker Green (Thermo Fisher Scientific Inc., E34251) (1 μM for 15 min) in a serum-free medium at 37 °C. […] All the trackers were excited at 488 nm and their fluorescence was monitored at 500−570 nm, while the DSBDP moiety was excited at 638 nm and its fluorescence was monitored at 650−750nm. The images were digitized and analyzed using a Leica Application Suite X software. […]
at 500−550 nm. The images were digitized and analyzed using a Leica Application Suite X […]

A549 cells [2] = assay: Dark and photocytotoxicity (MTT); format: cell-based, human; details: without light irradiation, up to 4 μM, all conditions (with or without inhibitors)
Description: The dark- and photocytotoxicity of 1 was also investigated against all four cell lines under the different conditions as described, using 14 as a negative control. […] Without light irradiation, both 1 and 14 were noncytotoxic up to 4 μM for all conditions. Upon light irradiation (λ > 610 nm, 23 mW cm^–2, 28 J cm^–2), both conjugates however could induce a different extent of cytotoxicity. […] The results could be attributed to the intrinsic difference in the MMP-2 levels in these cells. […] The photocytotoxicity was further reduced under the dual inhibition condition, for which the IC50 values (>4 μM) also could not be determined. […] The overall results generally followed the trend of intracellular ROS generation as reported above. […]
Approximately 2 × 10^4 cells per well (100 µL) in the corresponding medium were inoculated in 96-well plates and incubated overnight at 37 °C in a humidified 5% CO 2 atmosphere. A stock solution of 1 or 14 (1 mM) was prepared as described above, which was diluted with a serum-free medium to various concentrations. The cells, after being rinsed with PBS twice, were treated with or without SB -3CT (10 μM) and/or CA -074 Me (25 μM) in the medi um (100 μL) for 2 h. The cells were further incuba ted with 100 μL of different concentrations of 1 or 14 for 1 h at 37 °C under 5% CO2. After being rinsed with PBS twice, the cells were incubated in the culture medium (100 μL) for 6 h. The cells were then rinsed with PBS and re -fed with 100 μL of a serum-containing medium before being irradiated (λ > 610 nm, 23 mW cm –2, 28 J cm– 2) at ambient temperature. Cell viability was determined by means of a colorimetric MTT assay.R7 After irradiation, the cells were incubated at 37 °C under 5% CO 2 overnight. After incubation, the medium was removed and the cell s were rinsed with PBS twice. A MTT (S igma) solution in PBS (3 mg mL -1, 50 μL) was added to each well followed by incubation for 4 h under the same environment. DMSO (100 μL) was then added to each well. Solutions in all the wells were mixed until homogenous. The absorbance at 490 nm of each w ell on the plate was […]
taken by a microplate reader (Tecan Spark 10M) at ambient temperature. The average […]
of the other wells. The cell viability was then determined by the equation: […]
where Ai is the absorbance of the ith datum (i = 1, 2, …, n), Acontrol is the average absorbance of the control wells in which the compound was absent, and n (= 4) is the number of data points. […]

SMILES	intracellular ROS generation (DCF fluorescence) (A549 cells [1]; no inhibitor pretreatment)	dark cytotoxicity (A549 cells [2])	intracellular ROS generation (DCF fluorescence) (A549 cells [1]; pretreatment with both SB-3CT (10 μM) and CA-074 Me (25 μM) 2 h)
CCN(CC)c1ccc2nc3ccc(/N=N/c4ccc(N(C)CCCNC(=O)OC[C@@H]5[C@@H]6CCc7nnn(CC(=O)NCCCC[C@@H]8NC(=O)CNC(=O)[C@H](CCCCN)NC(=O)CNC(=O)CNC(=O)CNC(=O)CNC(=O)CNC(=O)[C@H](CCCCN)NC(=O)[C@@H](N)CSCc9cc(COc%10ccc(C%11=C%12C(C)=C(I)C(/C=C/c%13ccc(OCCOCCOCCOC)cc%13)=[N+]%12[B-](F)(F)n%12c(/C=C/c%13ccc(OCCOCCOCCOC)cc%13)c(I)c(C)c%12%11)cc%10)cc(c9)CSC[C@@H](C(N)=O)NC(=O)[C@H](CCCCN)NC(=O)[C@H](CCCCN)NC(=O)CNC(=O)CNC(=O)CNC(=O)CNC(=O)[C@H](CCCCN)NC(=O)CNC8=O)c7CC[C@@H]65)cc4)cc3[n+](-c3ccccc3)c2c1 [compound 14]	could hardly be observed	noncytotoxic	
CCN(CC)c1ccc2nc3ccc(/N=N/c4ccc(N(C)CCCNC(=O)OC[C@@H]5[C@@H]6CCc7nnn(CC(=O)NCCCC[C@@H]8NC(=O)CNC(=O)[C@H](CCCCN)NC(=O)[C@H](CCCNC(=N)N)NC(=O)[C@H](C(C)C)NC(=O)CNC(=O)[C@H](CC(C)C)NC(=O)[C@@H]9CCCN9C(=O)[C@H](CCCCN)NC(=O)[C@@H](N)CSCc9cc(COc%10ccc(C%11=C%12C(C)=C(I)C(/C=C/c%13ccc(OCCOCCOCCOC)cc%13)=[N+]%12[B-](F)(F)n%12c(/C=C/c%13ccc(OCCOCCOCCOC)cc%13)c(I)c(C)c%12%11)cc%10)cc(c9)CSC[C@@H](C(N)=O)NC(=O)[C@H](CCCCN)NC(=O)[C@H](CCCCN)NC(=O)CNC(=O)[C@H](CC(C)C)NC(=O)[C@H](Cc9ccccc9)NC(=O)CNC(=O)[C@H](CCCCN)NC(=O)CNC8=O)c7CC[C@@H]65)cc4)cc3[n+](-c3ccccc3)c2c1 [compound 1]		noncytotoxic	could hardly be observed
